Experimental data published in patent US20240398773A1, “COMPOSITIONS COMPRISING OTESECONAZOLE” (Mycovia Pharmaceuticals, Inc., priority 2021, published 2024).

Tested on: Candida species
Assay: Phase 2a dose-ranging study in moderate-to-severe acute VVC, effective therapeutic cure
Type: in vivo, human
Details: comparator arm, single dose of fluconazole 150 mg; Per Protocol population
Experimental: Oteseconazole has previously been evaluated in a Phase 2a multi-center, randomized, double-blind, active-controlled, parallel-group, dose-ranging study in patients with moderate-to-severe acute VVC. A total of 55 subjects with moderate-to-severe acute VVC (severity score ≥6 and a positive fungal KOH test) participated in the study across 4 dose groups: 1) oteseconazole 300 mg qd for 3 days: 2) 600 mg qd for 3 days: 3) 600 mg bid for 3 days; or 4) a single dose of fluconazole 150 mg followed by matching placebo. […] No safety signals of clinical concern were observed from the safety assessments.
The efficacy of oteseconazole in the treatment of moderate-to-severe acute VVC was evaluated at the TOC visit in the Per Protocol population at the Day 28 test of cure (TOC) visit was, 87%, 86%, 86%, and 75% of subjects receiving the low, mid-, or high-dose oteseconazole or comparator arm of fluconazole, respectively, achieved an effective therapeutic cure (defined as having a total clinical signs and symptoms severity score of ≤1 and a negative culture for Candida species) in the Per Protocol population

OC(Cn1cncn1)(Cn1cncn1)c1ccc(F)cc1F [fluconazole, reference compound]
subjects achieving effective therapeutic cure at Day 28 TOC visit: 75%
